We go through four molecules from US10487093B2, “Heterocyclic compounds, in particular 2-oxo-4,4,5,5,6,6,7,7-octahydrobenzoxazole derivatives, and their use as antibacterial compounds” (priority 2016, dated 2019).

Experiment [1] concerns Staphylococcus aureus ATCC 29213. The experiment in a line: MIC, broth microdilution (CLSI) versus planktonic bacteria. The class given is cell-based. As to conditions: ATCC29213; Staphylococcus aureus ATCC 29213; 16-20 h; mode of three independent experiments; read-out: MIC, Sa ATCC 29213. On the technique in general: In broth dilution the organism is exposed to a series of concentrations in liquid medium.

Experiment [2] concerns Mycobacterium smegmatis ATCC 19420. The experiment is described as above. The class given is cell-based. The conditions noted are these: Mycolicibacterium smegmatis, ATCC19420, 16-20 h, mode of three independent experiments, read-out: MIC, Ms ATCC 19420.
Experiment [3] relates to Burkholderia mallei China 7. The experiment in a line: microbe, parasite or virus in culture. The class given is cell-based. The conditions noted are these: CHINA7, 24 h, read-out: MIC, Burkholderia mallei China 7.
The subject of experiment [4] is Burkholderia pseudomallei 1026b. The experiment in a line: microbe, parasite or virus in culture. The class given is cell-based. As to conditions: 24 h, read-out: MIC, Burkholderia pseudomallei 1026b.
A further experiment has as its system E. coli MG1655 D87G. The class given is cell-based, Escherichia coli. As to conditions: compared to the isogenic parent strain E. coli MG1655; D87G mutation on DNA gyrase subunit GyrA.
Experiment [5] relates to human hepatic cell line (HepG2 ATCC HB-8065). The experiment in a line: Human cell viability assay (CellTiter-Glo). As to conditions: Homo sapiens, HepG2, 24 h, read-out: IC50 (μg/mL) HepG2. For orientation: ATP-based viability assays read luminescence as a measure of living cells.
The test system of the next experiment is E. coli MG1655. In words: MIC, broth microdilution (CLSI) versus planktonic bacteria. The class given is cell-based, Escherichia coli. As to conditions: Escherichia coli, MG1655, read-out: MIC, Ec MG1655 WT.
Experiment [6] has as its system Acinetobacter baumannii NCTC 13420. Described as above. The class given is cell-based. The conditions noted are these: NCTC13420; Acinetobacter baumannii NCTC 13420; 16-20 h; mode of three independent experiments; read-out: MIC, Ab NCTC 13420.
Another experiment deals with Bacillus anthracis Ames. In words: microbe, parasite or virus in culture. The conditions noted are these: 24 h, read-out: MIC, Bacillus anthracis Ames. The class given is cell-based.
Experiment [7] deals with Acinetobacter baumannii ATCC 19606. The experiment in a line: MIC, broth microdilution (CLSI) versus planktonic bacteria. The class given is cell-based. The conditions noted are these: ATCC19606; Acinetobacter baumannii ATCC 19606; 16-20 h; mode of three independent experiments; read-out: MIC, Ab ATCC 19606.
The test system of experiment [8] is Enterobacter cloacae NCTC 13406. The description is as above. The class given is cell-based. The conditions noted are these: NCTC13406; Enterobacter cloacae NCTC 13406; 16-20 h; mode of three independent experiments; read-out: MIC, Ecl NCTC 13406.
Experiment [9] relates to Burkholderia pseudomallei K96243. In words: microbe, parasite or virus in culture. As to conditions: K96243, 24 h, read-out: MIC, Burkholderia pseudomallei K96243. The class given is cell-based.
In experiment [10] the test system is Neisseria meningitidis ATCC 13090. In words: MIC, broth microdilution (CLSI) versus planktonic bacteria. As to conditions: ATCC13090, 16-20 h, mode of three independent experiments. The class given is cell-based.
For the next experiment, the system named is E. coli MG1655 S83L. The class given is cell-based, Escherichia coli. As to conditions: compared to the isogenic parent strain E. coli MG1655; S83L mutation on DNA gyrase subunit GyrA.
The subject of experiment [11] is Streptococcus pneumoniae ATCC 49619. The experiment in a line: MIC, broth microdilution (CLSI) versus planktonic bacteria. The class given is cell-based. As to conditions: ATCC49619; Streptococcus pneumoniae ATCC 49619; 16-20 h; mode of three independent experiments; read-out: MIC, Sp ATCC 49619.
The subject of a further experiment is E. coli NCTC 13476. The experiment is described as above. The class given is cell-based. The conditions noted are these: NCTC13476; Escherichia coli NCTC 13476; 16-20 h; mode of three independent experiments; read-out: MIC, Ec NCTC 13476.
Experiment [12] deals with Pseudomonas aeruginosa ATCC 27853. The description is as above. The class given is cell-based. The conditions noted are these: ATCC27853; Pseudomonas aeruginosa ATCC 27853; 16-20 h; mode of three independent experiments; read-out: MIC, Pa ATCC 27853.
In the next experiment the test system is Yersinia pestis CO92. In words: microbe, parasite or virus in culture. The conditions noted are these: CO92, read-out: MIC, Yersinia pestis CO92. The class given is cell-based.
For experiment [13], the system named is Haemophilus influenzae ATCC 49247. In words: MIC, broth microdilution (CLSI) versus planktonic bacteria. The class given is cell-based. As to conditions: ATCC49247; Haemophilus influenzae ATCC 49247; 16-20 h; mode of three independent experiments; read-out: MIC, Hi ATCC 49247.
Experiment [14] relates to Francisella tularensis SCHU S4. In words: microbe, parasite or virus in culture. The class given is cell-based. As to conditions: SCHUS4, 38 h, read-out: MIC, Francisella tularensis SCHU S4.
Experiment [15] relates to Escherichia coli ATCC 25922. In words: MIC, broth microdilution (CLSI) versus planktonic bacteria. The class given is cell-based. The conditions noted are these: ATCC25922; Escherichia coli ATCC 25922; 16-20 h; mode of three independent experiments; read-out: MIC, Ec ATCC 25922.
The next experiment concerns E. coli ATCC BAA-2452. The description is as above. The class given is cell-based. The conditions noted are these: Escherichia coli ATCC BAA-2452; 16-20 h; mode of three independent experiments; read-out: MIC, Ec ATCC BAA 2452.
Experiment [16] relates to Burkholderia pseudomallei DD503. The experiment in a line: microbe, parasite or virus in culture. As to conditions: DD503, 24 h, read-out: MIC, Burkholderia pseudomallei DD503. The class given is cell-based.
Experiment [17] has as its system fluoroquinolone-resistant Enterococcus faecium ATCC 700221. The experiment in a line: MIC, broth microdilution (CLSI) versus planktonic bacteria. The class given is cell-based. As to conditions: ATCC700221, 16-20 h, mode of three independent experiments, read-out: MIC, Efm ATCC 700221.
The subject of experiment [18] is Enterococcus faecium ATCC 19434. The description is as above. The class given is cell-based. The conditions noted are these: ATCC19434, 16-20 h, mode of three independent experiments, read-out: MIC, Efm ATCC 19434.
For experiment [19], the system named is Gram-negative and Gram-positive bacterial strains. The class given is cell-based. The conditions noted are these: strain panel of Table 1.
Experiment [20] concerns Enterococcus faecalis ATCC 29212. In words: MIC, broth microdilution (CLSI) versus planktonic bacteria. The class given is cell-based. As to conditions: ATCC29212, 16-20 h, mode of three independent experiments, read-out: MIC, Ef ATCC 29212.

Converted amounts (≈) assume the structure as drawn. A value given as a limit tells only on which side of the number the result lay.

Take `COc1ncc2ccc(=O)n(CCN[C@@H]3CC[C@@H]4[C@@H](C3)OC(=O)N4c3ccc4c(n3)NC(=O)CO4)c2n1` [Compound 2, (3aR,6R,7aR)-6-[(2-{2-methoxy-7-oxo-7H,8H-pyrido[2,3-d]pyrimidin-8-yl}ethyl)amino]-3-(3-oxo-2H,3H,4H-pyrido[3,2-b][1,4]oxazin-6-yl}-octahydro-1,3-benzoxazol-2-one]: the MIC in experiment [1] is < 1 µg/mL; in [2] it was < 1 µg/mL; in experiment [3] it was 1 to 4 µg/mL (≈ 1.97 to 7.88 µM); in experiment [4], 1 to 4 µg/mL (≈ 1.97 to 7.88 µM); in the experiment with E. coli MG1655 it was < 1 µg/mL; in experiment [6], < 1 µg/mL. In addition, the MIC is < 1 µg/mL with Bacillus anthracis Ames; < 1 µg/mL in experiment [7]; < 1 µg/mL in [8]; 1 to 4 µg/mL (≈ 1.97 to 7.88 µM) in [9]; < 1 µg/mL in experiment [10]; < 1 µg/mL in experiment [11]. Also, the MIC is 1 to 10 µg/mL (≈ 1.97 to 19.7 µM) in the experiment on E. coli NCTC 13476; 1 to 10 µg/mL (≈ 1.97 to 19.7 µM) in experiment [12]; < 1 µg/mL in the experiment with Yersinia pestis CO92; < 1 µg/mL in experiment [13]; 1 to 4 µg/mL (≈ 1.97 to 7.88 µM) in experiment [14]; < 1 µg/mL in experiment [15]. Also, the MIC in the experiment on E. coli ATCC BAA-2452 is < 1 µg/mL; in experiment [16], 1 to 4 µg/mL (≈ 1.97 to 7.88 µM). In the experiment on E. coli MG1655 D87G, the “Fold increase in MIC, E. coli MG1655 D87G” value worked out at 1 fold. The IC50 in experiment [5] was > 100 µg/mL. In addition, in the experiment on E. coli MG1655 S83L, the “Fold increase in MIC, E. coli MG1655 S83L” value was determined as 1 fold.
As to `COc1ccc2ccc(=O)n(CCCN[C@@H]3CC[C@@H]4[C@@H](C3)OC(=O)N4c3ccc4c(n3)NC(=O)CO4)c2n1` [Compound 76, 1-(3-{[(3aR,6R,7aR)-2-oxo-3-{3-oxo-2H,3H,4H-pyrido[3,2-b][1,4]oxazin-6-yl}-octahydro-1,3-benzoxazol-6-yl]amino}propyl)-7-methoxy-1,2-dihydro-1,8-naphthyridin-2-one], the MIC (in experiment [1]; in the experiment on E. coli MG1655; in [6]; in experiment [17]; in [7]; in experiment [8]) was < 1 µg/mL in each case. The MIC (in experiment [18]; in experiment [11]; in the experiment on E. coli NCTC 13476; in experiment [12]; in experiment [13]; in experiment [15]) was < 1 µg/mL each time. In addition, the MIC (in the experiment on E. coli ATCC BAA-2452; in experiment [20]) was < 1 µg/mL throughout. In addition, the “Fold increase in MIC, E. coli MG1655 D87G” value with E. coli MG1655 D87G is recorded as 2 fold. In experiment [5], the IC50 lay within 10 to 100 µg/mL (≈ 19.2 to 192 µM). The “Fold increase in MIC, E. coli MG1655 S83L” value in the experiment with E. coli MG1655 S83L amounted to 2 fold. Besides, the “activity against both Gram-negative and Gram-positive bacteria (in words)” value in experiment [19] is “excellent activity”.
`C[C@H]1c2cccc(O)c2C(=O)C2=C(O)[C@]3(O)C(=O)C(C(N)=O)=C(O)[C@@H](N(C)C)[C@@H]3[C@@H](O)[C@@H]21` [DOX, doxycycline, reference compound]: the MIC in experiment [3] is < 1 µg/mL; in [4], 1 to 4 µg/mL (≈ 2.25 to 9 µM); in the experiment on Bacillus anthracis Ames, < 1 µg/mL; in experiment [9], 1 to 4 µg/mL (≈ 2.25 to 9 µM); in the experiment with Yersinia pestis CO92, 1 to 4 µg/mL (≈ 2.25 to 9 µM); in experiment [14], < 1 µg/mL. Also, the MIC in experiment [16] lay in the range of 1 to 4 µg/mL (≈ 2.25 to 9 µM).
For `COc1ccc2ccc(=O)n(CCN[C@@H]3CC[C@@H]4[C@@H](C3)OC(=O)N4c3ccc4c(n3)NC(=O)CO4)c2n1` [Compound 1, 1-(2-{[(3aR,6R,7aR)-2-oxo-3-{3-oxo-2H,3H,4H-pyrido[3,2-b][1,4]oxazin-6-yl}-octahydro-1,3-benzoxazol-6-yl]amino}ethyl)-7-methoxy-1,2-dihydro-1,8-naphthyridin-2-one], the MIC (in experiment [1]; in [2]; in the experiment with E. coli MG1655; in experiment [6]; in [17]; in experiment [7]) was < 1 µg/mL each time. For the same molecule, the MIC (in [8]; in [10]; in experiment [18]; in experiment [11]; with E. coli NCTC 13476; in [12]) was < 1 µg/mL each time. The MIC (in experiment [13]; in experiment [15]; with E. coli ATCC BAA-2452; in experiment [20]) was < 1 µg/mL each time. Also, the “Fold increase in MIC, E. coli MG1655 D87G” value with E. coli MG1655 D87G was 1 fold. In addition, the IC50 in experiment [5] is > 100 µg/mL. In the experiment on E. coli MG1655 S83L, the “Fold increase in MIC, E. coli MG1655 S83L” value is 1 fold. Besides, the “activity against both Gram-negative and Gram-positive bacteria (in words)” value in experiment [19] was “excellent activity”.
